Source: US6331555A, “Treatment of platelet derived growth factor related disorders such as cancers” (priority 1999, dated 2001)

Experiments:
SF767T cells = assay: Soft agar assay (SAA); assay type: cell-based; conditions: Homo sapiens; PDGF-R expression ++
Experimental: (§1) After a 2 to 3 week incubation at 37° C., colonies larger than 50 μm were quantified using an Omnicon 3800 Tumor Colony counter.
(§2) PDGF-R expression was measured qualitatively using a western blot.

C6 cells = assay: Soft agar assay (SAA); assay type: cell-based; conditions: Rattus norvegicus, PDGF-R expression ++
Experimental: as §1, §2

SKOV-3 cells = assay: Soft agar assay (SAA); assay type: cell-based; conditions: Homo sapiens, SK-OV-3; PDGF-R expression -
Experimental: as §1, §2

SKOV-3T cells = assay: Soft agar assay (SAA); assay type: cell-based; conditions: Homo sapiens; PDGF-R expression ++
Experimental: as §1, §2

U87MG cells = assay: Intracerebral U87MG tumor, athymic mice, survival; assay type: in vivo, human; conditions: IC U87MG; control 60 days; P=0.15
[1] = tested on: glioblastoma multiformae (GBM) primary tumor cells; assay: Growth of primary tumor cells from glioblastoma patients; assay type: cell-based, human
Experimental: Viable tumors were placed into medium by the pathologist at the referring institution immediately after surgery, and shipped to Oncotech by overnight delivery. As soon as a tumor was received, a portion was fixed in formalin for sectioning and the remainder trimmed of necrotic, connective and adipose tissues. All tumor manipulations were performed aseptically. The remaining tumor was placed into a Petri dish containing 5 mL of medium (RPMI 1640 supplemented with 10% FBS, 100 IU/mL penicillin, […] streptomycin and L-glutamine) and disaggregated mechanically with scissors into pieces 2 mm or smaller. […]
After enzymatic dispersion into a near single-cell suspension, tumor cells were filtered through nylon mesh, washed in medium, suspended in soft agarose (0.12%) and plated at approximately 20,000 cells per well onto an agarose underlayer (0.4%) in 24-well plates. […] After the appropriate labeling period, tissue culture plates were heated at 60° C. to melt the agarose, the cells harvested with a micro-harvester onto glass fiber filters and the radioactivity determined. Percent inhibition (PCI) was determined using the formula: PCI=1-(CPM treatment group […] CPM control group). Determinations of control group proliferation were performed in quadruplicate, while treatment group proliferation was determined in triplicate. […]

[2] = Effects of A10 on mortality (mice implanted with C6 cells); assay type: in vivo, mouse; conditions: mouse, in vivo, ip
Experimental: (§3) Cell lines were grown in appropriate medium (see Appendix 1). Cells were harvested at or near confluency with 0.05% Trypsin-EDTA and pelleted at 450×g for 10 min. Pellets were resuspended in sterile PBS or media (without FBS) to a particular concentration and the cells were implanted into the hindflank of mice. Tumor growth was measured over 3 to 6 weeks using venier calipers. Tumor volumes were calculated as a product of length×width×height unless otherwise indicated. P values were calculated using the Students' t-test.

[3] = tested on: mice implanted with C6 cells; assay: as above; assay type: in vivo, mouse
Experimental: as §3

Compound Cc1oncc1C(=O)Nc1ccc(C(F)(F)F)cc1 [Compound A10, 5-methylisoxazole-4 carboxylic acid-(4-trifluromethyl)-anilide] has an IC50 (SF767T cells) of 0.5 to 2 µM, an IC50 (C6 cells) of 0.4 µM and an IC50 (SKOV-3 cells) of 6.3 µM. For the same compound, the IC50 (SKOV-3T cells) was 0.3 µM, the mean survival (U87MG cells) was 65 days and the tumor cell growth ([1]; 0 to 400 mM) was “tumor cell growth decreased for both types of tumors”. The IC50 ([1]; Homo sapiens, range over six patients, read-out: IC50, GBM tumors) was 39 to 198 µM, the mortality ([2]; 25 mg/kg/day (PBTE:D5W), 67 treatments, n 8) was 0% and the mortality ([2]; 30 mg/kg/day (PBTE), 48 treatments, n 4) was 50%. It also gave a mortality ([2]; 40 mg/kg/day (PBTE), 48 treatments, n 4) of 75%, a mortality ([3]; 20 mg/kg/day (DMSO), 21 treatments, n 26) of 54% and a mortality ([3]; 20 mg/kg/day (PBTE), 20-48 treatments, n 12) of 8%. The “mortality rate by formulation” value ([3]; PBTE:D5W compared to DMSO and PBTE) was “significantly reduced the mortality rate compared to DMSO formulations, and PBTE formulations”.
